These results are taken from patent US20260234150A1, “COMPOUND FOR INHIBITING NLRP3, PREPARATION METHOD, AND USE” (DOVETREE MEDICINES UNUS, INC., priority 2023, published 2026).

Where only a bound is given, the exact number is not on record here.

Experiment [1] has as its system iodoacetic acid (MIA)-induced SD rat knee osteoarthritis model. Briefly: Iodoacetic acid (MIA)-induced SD rat knee osteoarthritis model. The conditions noted are these: 30 mg/kg orally once a day from Day 7 to Day 42; compared with model blank control group; 21 days to 42 days after modeling. The format is in vivo, SD rats. How it is done:
Purpose: Evaluate the efficacy of MCC950 (Positive reference compound) and compound 111 of the present disclosure on iodoacetic acid (MIA)-induced SD rat knee osteoarthritis model.
Experimental materials: Experimental male SD rats, 4 weeks old.
Model induction began after the experimental animals were adapted to the animal environment for 7 days. Day 0, the rats were anesthetized, the hair around the left knee joint was removed, and the skin was disinfected. The left leg was flexed 90° to expose the patellar platform. The depression in the middle of the platform was touched by hand to find the femoral condyle, patella and ligament. The syringe needle was inserted from the bottom of the patella on both sides of the patellar ligament to the direction of the femoral condyle. When a clear sense of empty space was felt, 50 μL of iodoacetic acid solution was injected. Day 7 Grouping was performed according to the width of the knee joint on the induced side. The groups were: normal control group (healthy control without modeling, 5% DMSO+10% Solutol+85% Saline), model blank control group (5% DMSO+10% Solutol+85% Saline), MCC950 30 mg/kg, and compound 111 of the present disclosure 30 mg/kg. Starting from Day 7, the normal control group and the model blank control group were given the solvent (5% DMSO+10% Solutol+85% Saline) orally once a day, and the other groups were given the corresponding compounds orally once a day until the end of the administration on Day 42. The knee joint width and body weight of the rats were measured once on Day 7, 14, 21, 28, 35, and 42.

Another experiment has as its target T1, hERG ion channel (Homo sapiens, UniProt Q12809).
T1 construct: host or cells: HEK293
Briefly: hERG ion channel inhibition, manual patch clamp in HEK293 cells. To be noted: HEK293 cells stably expressing hERG, read-out: hERG(IC50, manupatch). The class given is cell-based. How it is done:
This experiment used manual patch clamp electrophysiology to detect the inhibitory effect of compounds on hERG ion channels, and evaluated cardiac safety based on the single concentration inhibition rate or IC50 size of the compounds.
The cells used in this experiment are HEK293 cell lines transfected with hERG cDNA and stably expressing hERG channels (#60187, provided by BPS, P3-P23 generations are used for experimental research). Cells were cultured in a medium containing the following components: MEM medium, 10% (v/v) inactivated fetal bovine serum, 1 mM sodium pyruvate, […] geneticin, 0.1 mM non-essential amino acids, and 100 U penicillin-streptomycin. HEK293 hERG cells were grown in culture flasks containing the above culture medium and cultured in an incubator at 37° C. and 5% CO2. […]
The electrophysiological experiments were performed by a manual patch clamp system (HEKAEPC-10 signal amplifier and digital conversion system, purchased from HEKA Electronics, Germany) to record the whole-cell current. […] After the hERG current recorded in the above steps reaches stability under continuous perfusion of extracellular fluid in the recording tank, different concentrations of the test compound can be perfused until the inhibitory effect of the drug on the hERG current reaches a stable state. […]

T1 sequence (Q12809 whole entry): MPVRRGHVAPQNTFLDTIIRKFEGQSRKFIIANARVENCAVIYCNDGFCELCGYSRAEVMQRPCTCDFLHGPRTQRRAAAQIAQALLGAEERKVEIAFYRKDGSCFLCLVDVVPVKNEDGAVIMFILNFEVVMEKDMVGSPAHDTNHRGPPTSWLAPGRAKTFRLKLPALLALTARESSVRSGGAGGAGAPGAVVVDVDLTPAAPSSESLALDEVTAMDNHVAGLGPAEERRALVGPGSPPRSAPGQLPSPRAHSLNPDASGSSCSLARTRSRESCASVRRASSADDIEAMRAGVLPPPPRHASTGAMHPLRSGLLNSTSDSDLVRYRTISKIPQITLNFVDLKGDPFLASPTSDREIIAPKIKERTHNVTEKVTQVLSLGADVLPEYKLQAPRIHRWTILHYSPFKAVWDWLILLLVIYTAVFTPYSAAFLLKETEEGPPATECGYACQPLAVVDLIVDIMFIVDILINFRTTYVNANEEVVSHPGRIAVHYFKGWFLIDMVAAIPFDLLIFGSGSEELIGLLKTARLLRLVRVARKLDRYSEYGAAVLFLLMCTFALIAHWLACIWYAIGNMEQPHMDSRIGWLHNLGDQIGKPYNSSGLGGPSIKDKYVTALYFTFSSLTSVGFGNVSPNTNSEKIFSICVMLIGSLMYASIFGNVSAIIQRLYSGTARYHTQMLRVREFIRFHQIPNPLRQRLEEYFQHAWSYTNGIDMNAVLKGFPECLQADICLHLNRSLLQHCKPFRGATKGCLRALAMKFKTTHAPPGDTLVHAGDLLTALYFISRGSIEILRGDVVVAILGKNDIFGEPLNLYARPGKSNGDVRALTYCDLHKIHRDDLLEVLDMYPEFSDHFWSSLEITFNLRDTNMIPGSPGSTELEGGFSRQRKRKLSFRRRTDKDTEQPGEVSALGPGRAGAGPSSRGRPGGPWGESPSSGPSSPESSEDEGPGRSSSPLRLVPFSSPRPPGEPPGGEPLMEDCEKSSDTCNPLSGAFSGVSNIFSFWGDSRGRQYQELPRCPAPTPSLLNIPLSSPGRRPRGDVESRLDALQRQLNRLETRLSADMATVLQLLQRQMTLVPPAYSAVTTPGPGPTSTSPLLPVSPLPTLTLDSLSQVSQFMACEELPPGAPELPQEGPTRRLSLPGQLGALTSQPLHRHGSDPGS

As for `CC(=O)N1CCOC[C@H]1CNc1nc2nc(-c3c(C)cc(C(F)(F)F)cc3O)ccc2o1` [Compound 111], in experiment [1], the “widening of the knee joints (knee joint width)” value is “could significantly inhibit the widening of the knee joints”. For the same compound, the 50% inhibitory concentration (IC50) on hERG ion channel is greater than 30 µM.

In general, IC50 refers to the midpoint of a concentration-inhibition curve.
